Measured values published in US12215140B2, “Method of stabilizing protein contained in specimen and solution for stabilizing protein contained in specimen” (EIKEN KAGAKU KABUSHIKI KAISHA, priority 2018, dated 2025).

System: hemoglobin-haptoglobin complex
Test: Stability of hemoglobin (as hemoglobin-haptoglobin complex) in samples preserved at 37° C. in preservation solution containing 1 unit/L haptoglobin, Hb measured by latex agglutination method (Examples 1 to 7)
Parameters: species or system human
How it was run: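 Latex agglutination (anti-human hemoglobin rabbit polyclonal latex) measured Hb in samples stored at 37 °C up to 21 days; values expressed as % recovery versus day 0. Preservation solution: HEPES 40 mmol/L pH 6.8, BSA 0.1%, NaN3 0.1%, haptoglobin 1 unit/L, phenylboronic acid 0–100 mmol/L, optional sugars; ~300 µg/L Hb, 0.5% feces or none.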

[1] = Feces 1, phenylboronic acid 0.5 mmol/L, 37° C., 0 days
[2] = Feces 1, phenylboronic acid 0.5 mmol/L, 37° C., 7 days
[3] = Feces 1, phenylboronic acid 0.5 mmol/L, 37° C., 14 days
[4] = Feces 1, phenylboronic acid 0.5 mmol/L, 37° C., 21 days
[5] = Feces 1, phenylboronic acid 1 mmol/L, 37° C., 0 days
[6] = Feces 1, phenylboronic acid 1 mmol/L, 37° C., 14 days
[7] = Feces 1, phenylboronic acid 1 mmol/L, 37° C., 21 days
[8] = Feces 1, phenylboronic acid 15 mmol/L, 37° C., 0 days
[9] = Feces 1, phenylboronic acid 15 mmol/L, 37° C., 7 days
[10] = Feces 1, phenylboronic acid 15 mmol/L, 37° C., 14 days
[11] = Feces 1, phenylboronic acid 15 mmol/L, 37° C., 21 days
[12] = Feces 1, phenylboronic acid 50 mmol/L, 37° C., 0 days
[13] = Feces 1, phenylboronic acid 50 mmol/L, 37° C., 7 days
[14] = Feces 1, phenylboronic acid 50 mmol/L, 37° C., 14 days
[15] = Feces 1, phenylboronic acid 50 mmol/L, 37° C., 21 days
[16] = Feces 1, phenylboronic acid 100 mmol/L, 37° C., 0 days
[17] = Feces 1, phenylboronic acid 100 mmol/L, 37° C., 7 days
[18] = Feces 1, phenylboronic acid 100 mmol/L, 37° C., 14 days
[19] = Feces 1, phenylboronic acid 100 mmol/L, 37° C., 21 days
[20] = Feces 2, phenylboronic acid 0.5 mmol/L, 37° C., 0 days
[21] = Feces 2, phenylboronic acid 0.5 mmol/L, 37° C., 7 days
[22] = Feces 2, phenylboronic acid 0.5 mmol/L, 37° C., 14 days
[23] = Feces 2, phenylboronic acid 0.5 mmol/L, 37° C., 21 days
[24] = Feces 2, phenylboronic acid 1 mmol/L, 37° C., 7 days
[25] = Feces 2, phenylboronic acid 1 mmol/L, 37° C., 14 days
[26] = Feces 2, phenylboronic acid 1 mmol/L, 37° C., 21 days
[27] = Feces 2, phenylboronic acid 15 mmol/L, no sugar, 0 days at 37° C.
[28] = Feces 2, phenylboronic acid 15 mmol/L, no sugar, 7 days at 37° C.
[29] = Feces 2, phenylboronic acid 15 mmol/L, no sugar, 14 days at 37° C.
[30] = Feces 2, phenylboronic acid 15 mmol/L, no sugar, 21 days at 37° C.
[31] = Feces 2, phenylboronic acid 15 mmol/L, 37° C., 0 days
[32] = Feces 2, phenylboronic acid 15 mmol/L, 37° C., 7 days
[33] = Feces 2, phenylboronic acid 15 mmol/L, 37° C., 14 days
[34] = Feces 2, phenylboronic acid 15 mmol/L, 37° C., 21 days
[35] = Feces 2, phenylboronic acid 50 mmol/L, 37° C., 0 days
[36] = Feces 2, phenylboronic acid 50 mmol/L, 37° C., 7 days
[37] = Feces 2, phenylboronic acid 50 mmol/L, 37° C., 21 days
[38] = Feces 2, phenylboronic acid 100 mmol/L, 37° C., 0 days
[39] = Feces 2, phenylboronic acid 100 mmol/L, 37° C., 7 days
[40] = Feces 2, phenylboronic acid 100 mmol/L, 37° C., 14 days
[41] = Feces 2, phenylboronic acid 100 mmol/L, 37° C., 21 days

## OB(O)c1ccccc1 [phenylboronic acid]
Feces 1, Feces 2, Feces 3, phenylboronic acid at 0.5 mmol/L or more
  recovery ratio of hemoglobin in the samples: improved
[1]
  Hb concentration: 279 µg/L
  Recovery ratio with respect to Hb concentration after 0 days: 100%
[2]
  Hb concentration: 181 µg/L
  Recovery ratio with respect to Hb concentration after 0 days: 65%
[3]
  Hb concentration: 147 µg/L
  Recovery ratio with respect to Hb concentration after 0 days: 53%
[4]
  Hb concentration: 129 µg/L
  Recovery ratio with respect to Hb concentration after 0 days: 46%
[5]
  Hb concentration: 275 µg/L
  Recovery ratio with respect to Hb concentration after 0 days: 100%
Feces 1, phenylboronic acid 1 mmol/L, 37° C., 7 days
  Recovery ratio with respect to Hb concentration after 0 days: 66%
[6]
  Hb concentration: 148 µg/L
  Recovery ratio with respect to Hb concentration after 0 days: 54%
[7]
  Hb concentration: 125 µg/L
  Recovery ratio with respect to Hb concentration after 0 days: 45%
[8]
  Hb concentration: 302 µg/L
  Recovery ratio with respect to Hb concentration after 0 days: 100%
[9]
  Hb concentration: 243 µg/L
  Recovery ratio with respect to Hb concentration after 0 days: 80%
[10]
  Hb concentration: 239 µg/L
  Recovery ratio with respect to Hb concentration after 0 days: 79%
[11]
  Hb concentration: 224 µg/L
  Recovery ratio with respect to Hb concentration after 0 days: 74%
[12]
  Hb concentration: 290 µg/L
  Recovery ratio with respect to Hb concentration after 0 days: 100%
[13]
  Hb concentration: 230 µg/L
  Recovery ratio with respect to Hb concentration after 0 days: 79%
[14]
  Hb concentration: 204 µg/L
  Recovery ratio with respect to Hb concentration after 0 days: 70%
[15]
  Hb concentration: 185 µg/L
  Recovery ratio with respect to Hb concentration after 0 days: 64%
[16]
  Hb concentration: 271 µg/L
  Recovery ratio with respect to Hb concentration after 0 days: 100%
[17]
  Hb concentration: 186 µg/L
  Recovery ratio with respect to Hb concentration after 0 days: 69%
[18]
  Hb concentration: 137 µg/L
  Recovery ratio with respect to Hb concentration after 0 days: 51%
[19]
  Hb concentration: 97 µg/L
  Recovery ratio with respect to Hb concentration after 0 days: 36%
[20]
  Hb concentration: 271 µg/L
  Recovery ratio with respect to Hb concentration after 0 days: 100%
[21]
  Hb concentration: 147 µg/L
  Recovery ratio with respect to Hb concentration after 0 days: 54%
[22]
  Hb concentration: 113 µg/L
  Recovery ratio with respect to Hb concentration after 0 days: 42%
[23]
  Hb concentration: 91 µg/L
  Recovery ratio with respect to Hb concentration after 0 days: 34%
Feces 2, phenylboronic acid 1 mmol/L, 37° C., 0 days
  Recovery ratio with respect to Hb concentration after 0 days: 100%
[24]
  Hb concentration: 166 µg/L
  Recovery ratio with respect to Hb concentration after 0 days: 58%
[25]
  Hb concentration: 136 µg/L
  Recovery ratio with respect to Hb concentration after 0 days: 48%
[26]
  Hb concentration: 116 µg/L
  Recovery ratio with respect to Hb concentration after 0 days: 41%
[27]
  Hb concentration: 283 µg/L
  Recovery ratio with respect to Hb concentration after 0 days: 100%
[28]
  Hb concentration: 249 µg/L
  Recovery ratio with respect to Hb concentration after 0 days: 88%
[29]
  Hb concentration: 214 µg/L
  Recovery ratio with respect to Hb concentration after 0 days: 76%
[30]
  Hb concentration: 191 µg/L
  Recovery ratio with respect to Hb concentration after 0 days: 67%
[31]
  Hb concentration: 283 µg/L
  Recovery ratio with respect to Hb concentration after 0 days: 100%
[32]
  Hb concentration: 249 µg/L
  Recovery ratio with respect to Hb concentration after 0 days: 88%
[33]
  Hb concentration: 214 µg/L
  Recovery ratio with respect to Hb concentration after 0 days: 76%
[34]
  Hb concentration: 191 µg/L
  Recovery ratio with respect to Hb concentration after 0 days: 67%
[35]
  Hb concentration: 269 µg/L
  Recovery ratio with respect to Hb concentration after 0 days: 100%
[36]
  Hb concentration: 214 µg/L
  Recovery ratio with respect to Hb concentration after 0 days: 80%
Feces 2, phenylboronic acid 50 mmol/L, 37° C., 14 days
  Recovery ratio with respect to Hb concentration after 0 days: 65%
[37]
  Hb concentration: 149 µg/L
  Recovery ratio with respect to Hb concentration after 0 days: 55%
[38]
  Hb concentration: 250 µg/L
  Recovery ratio with respect to Hb concentration after 0 days: 100%
[39]
  Hb concentration: 139 µg/L
  Recovery ratio with respect to Hb concentration after 0 days: 56%
[40]
  Hb concentration: 80 µg/L
  Recovery ratio with respect to Hb concentration after 0 days: 32%
[41]
  Hb concentration: 36 µg/L
  Recovery ratio with respect to Hb concentration after 0 days: 14%
Feces 3, phenylboronic acid 0.5 mmol/L, 37° C., 0 days
  Hb concentration: 283 µg/L
